{"source": "patent US20220332836A1", "about": "“A METHOD FOR PREVENTING HUMAN VIRUS ASSOCIATED DISORDERS IN PATIENTS” (NOVARTIS AG, priority 2019, published 2022)", "molecules": {"B1": {"name": "mAb1 (antibody, human IgG1, kappa, N297A, V domains shown)", "VH": "QVQLVESGGGVVQPGRSLRLSCAASGFTFSSYGMHWVRQAPGKGLEWVAVISYEESNRYHADSVKGRFTISRDNSKITLYLQMNSLRTEDTAVYYCARDGGIAAPGPDYWGQGTLVTVSS", "VL": "DIVMTQSPLSLTVTPGEPASISCRSSQSLLYSNGYNYLDWYLQKPGQSPQVLISLGSNRASGVPDRFSGSGSGTDFTLKISRVEAEDVGVYYCMQARQTPFTFGPGTKVDIRR", "notes": "also called CFZ533; Iscalimab"}, "B2": {"name": "HCD122: a depleting CD40 mAb as positive control (antibody, chains of the INN, looked up, V domains shown)", "VH": "B1 VH", "VL": "DIVMTQSPLSLTVTPGEPASISCRSSQSLLYSNGYNYLDWYLQKPGQSPQVLISLGSNRASGVPDRFSGSGSGTDFTLKISRVEAEDVGVYYCMQARQTPFTFGPGTKVDIR"}}, "key": {"[1]": {"tested_on": "PBMC incubated with EBV supernatant", "test": "EBV regression assay with PBMC", "format": "cell-based, human", "description": "Buffy coats from six healthy volunteers (18-001 to 18-006) were received from Blutspendezentrum Bern. Peripheral blood mononuclear cells (PBMC) were isolated using LeucoSep tubes following manufacturer's instructions, counted with TC20 and adjusted in cell culture medium (Medium, buffers and reagents). All conditions (see Table 3-2) were run in five replicates in 96-well U-bottom plates and contained 2×10^5 cells/well. PBMC were incubated for 10-15 minutes at 37° C. before adding cell culture medium containing EBV-supernatant and transferrin (see Medium, buffers and reagents). […] Cell pellets were stained and analyzed by flow cytometry (FACS staining procedure).\nIn FIG. 1, the gating strategy is shown."}, "[2]": {"tested_on": "EBV-seronegative EBV-B cell/T cell co-cultures", "test": "EBV-B cell/T cell co-culture, EBV-seronegative donors", "format": "cell-based, human"}, "[3]": {"tested_on": "EBV-seropositive EBV-B cell/T cell co-cultures", "test": "EBV-B cell/T cell co-culture, EBV-seropositive donors"}, "[4]": {"target": "T1, human CD40 (human, UniProt P25942 21-193, limits assumed)", "T1 construct": "also called tumor necrosis factor receptor superfamily member 5", "T1 sequence (P25942 21-193 limits assumed)": "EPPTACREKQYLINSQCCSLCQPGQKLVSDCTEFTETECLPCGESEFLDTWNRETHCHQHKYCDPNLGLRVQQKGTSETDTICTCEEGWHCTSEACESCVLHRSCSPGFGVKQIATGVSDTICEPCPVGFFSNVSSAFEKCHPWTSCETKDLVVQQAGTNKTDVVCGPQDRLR", "test": "method not stated"}, "[5]": {"tested_on": "NK cell-depleted PBMC cultures", "test": "EBV regression assay, complete or NK cell-depleted PBMC", "format": "cell-based, human", "conditions": "14 days", "description": "(§1) FIG. 16 provides CD3^+ T cell counts from the NK cell-depleted PBMC regression assay after 14 days of culture measured by flow cytometry. Antibodies (in μg/mL) and CsA (in μM) were given in combination with EBV supernatants (except the negative control=medium w/o EBV). Dotted horizontal line was set to the condition ‘medium+EBV’. Data are shown as mean+SEM (n=4).\nas §1, with “17” for “16”, “CD19^+ B cell counts from the PBMC regression assay after 14 days of culture measured by flow cytometry. Antibodies (in μg/mL) and CsA (in μM) were given in combination with EBV supernatants (except the negative control=medium w/o EBV). Dotted horizontal line was set to the condition ‘medium+EBV’. Data are shown as mean+SEM (n=4); and CD19^+ B” for “CD3^+ T”\nAll conditions except ‘medium w/o EBV’ were incubated with EBV supernatant and respective compound or antibodies. […] Looking at the CD19+ B cell proliferation (FIG. 3), there was an obvious increase in CD19+ B cell counts when PBMC were incubated with EBV supernatant compared to PBMC cultured with medium only (medium w/o EBV). […]"}, "[6]": {"conditions": "14 days, CsA 0.1, 1 μM, Belatacept 10, 50 μg/mL, CFZ533, hIgG1 10-200 μg/mL, vs medium+EBV"}, "[7]": {"conditions": "10-200 μg/mL, priming, recall, priming and recall, 11 days"}}, "data": [{"molecule": "Belatacept: CTLA4-Ig fusion protein; blocks CD80/CD86 and thereby inhibits T cell costimulation", "values": [{"measurement": "CD3+ T cell counts", "setting": "[1]; [6]", "result": "to a lesser degree than with CsA"}, {"measurement": "CD19+ B cell counts", "setting": "[1]; [6]", "result": "increase"}, {"measurement": "T cell activity (resulting in over-growth of in vitro immortalized cells)", "setting": "[1]; EBV regression assay", "result": "reduced"}, {"measurement": "CD4+ T cell proliferation, differences between the four doses", "setting": "[2]; 10, 50, 100 and 200 μg/mL", "result": "no evident differences"}, {"measurement": "CD4+ T cell proliferation", "setting": "[2]; 10-200 μg/mL, all three conditions", "result": "reduced"}, {"measurement": "CD3+ T cell proliferation", "setting": "[2]; [7]", "result": "reduced"}, {"measurement": "CD8+ T cell proliferation", "setting": "[2]; 10 and 50 μg/mL, recall only and priming and recall", "result": "only a reducing effect"}, {"measurement": "CD3+ T cell proliferation", "setting": "[2]; 100 and 200 μg/mL, priming and recall condition", "result": "only a reducing effect"}, {"measurement": "CD3+ T cell proliferation", "setting": "[2]; 100 and 200 μg/mL, priming or recall only condition", "result": "only minor"}, {"measurement": "CD8+ T cell proliferation", "setting": "[2]; 100 and 200 μg/mL, priming phase only", "result": "increased"}, {"measurement": "CD3+ T cell proliferation, 10 and 50 μg/mL versus 100 and 200 μg/mL", "setting": "[2]; all three conditions", "result": "slightly stronger but not significant suppression pattern"}, {"measurement": "CD3+ T cell proliferation", "setting": "[3]; [7]", "result": "reduced"}, {"measurement": "CD4+ T cell proliferation", "setting": "[3]; [7]", "result": "reduced"}, {"measurement": "CD3+ T cell proliferation", "setting": "[3]; 100 and 200 μg/mL", "result": "only an reducing effect on the T cell proliferation at the ‘priming and recall’ phase"}, {"measurement": "CD4+ T cell proliferation", "setting": "[3]; 100 and 200 μg/mL, priming and recall phase", "result": "robust reducing effect"}, {"measurement": "CD3+ T cell proliferation, 10 and 50 μg/mL versus 100 and 200 μg/mL", "setting": "[3]; all three conditions", "result": "slightly stronger but not significant suppression pattern"}, {"measurement": "CD4+ T cell proliferation, 10 and 50 μg/mL versus 100 and 200 μg/mL", "setting": "[3]; all three conditions", "result": "slightly stronger but not significant suppression pattern"}, {"measurement": "EBV-mediated T cell proliferation and IFNγ secretion in presence of EBV-B cells", "setting": "[3]; co-culture system, EBV-B cells sero-positive and sero-negative", "result": "reduced"}]}, {"molecule": "B1", "values": [{"measurement": "Kd", "setting": "[4]", "result": 0.3, "unit": "nM"}]}, {"molecule": "B2", "values": [{"measurement": "CD19+ B cell counts", "setting": "[5]", "result": "did deplete B cells"}]}]}
